From patent US7462622B2, “Pyrrolo[2, 3-d] pyrimidine derivatives as corticotropin releasing factor antagonists” (Glaxo Group Limited, priority 2001, dated 2008)

System: recombinant human CRF receptors
Experiment: CRF receptors-binding assay by scintillation proximity (SPA), displacement of 125I-oCRF (CRF1) / 125I-Sauvagine (CRF2)
Conditions: qualitative statement; assay not specified
Procedure: The CRF receptors-binding assay was performed by using the homogeneous technique of scintillation proximity (SPA). The ligand binds to recombinant membrane preparation expressing the CRF receptors which in turn bind to wheat germ agglutinin coated SPA beads. In the Experimental Part will be disclosed the details of the experiments.
CRF binding affinity has been determined in vitro by the compounds' ability to displace ^125I-oCRF and ^125I-Sauvagine for CRF1 and CRF2 SPA, respectively, from recombinant human CRF receptors expressed in Chinese Hamster Ovary (CHO) cell membranes. For membrane preparation, CHO cells from confluent T-flasks were collected in SPA buffer (HEPES/KOH 50 mM, EDTA 2 mM; MgCl2 10 mM, pH 7.4.) in 50 mL centrifuge tubes, homogenized with a Polytron and centrifuged (50,000 g for 5 min at 4° C.: Beckman centrifuge with JA20 rotor). The pellet was resuspended, homogenized and centrifuged as before.
The SPA experiment has been carried out in Optiplate by the addition of 100 μL the reagent mixture to 1 μL of compound dilution (100% DMSO solution) per well. […]
The plate was incubated overnight (>18 hrs) at room temperature and read with the Packard Topcount with a WGA-SPA ^125I counting protocol.

- activity: good activity
Structure (SMILES): CCC(COC)Oc1nc(C)nc2c1CCN2c1ccc(C(F)(F)F)cc1C(F)(F)F (stereo not shown) [Compound 1-12, 7-(2,4-bis-trifluoromethyl-phenyl)-4-(1-methoxymethyl-propoxy)-2-methyl-6,7-dihydro-5H-pyrrolo[2,3-d]pyrimidine]
